These results are taken from patent US20210395239A1 (Hoffmann-La Roche Inc., priority 2018, published 2021).

The target in one data set is T1, hERG channel (Homo sapiens, UniProt Q12809).
T1 construct: expressed in transfected cells; host or cells: CHO (Chinese hamster ovary)
The data set is described as follows: hERG channel inhibition assay (patch-clamp, CHOhERG cells). The settings on record: for safety window (hERG IC20/TLR7/8/9 IC50) compared to the compounds of this invention: result in words; for hERG IC20/TLR7 IC50 / hERG IC20/TLR9 IC50: safety ratio. In kind it is cell-based. How it is done: hERG Channel Inhibition Assay:
The hERG K^+ channels were cloned in humans and stably expressed in a CHO (Chinese hamster ovary) cell line. CHOhERG cells were used for patch-clamp (voltage-clamp, whole-cell) experiments. Cells were stimulated by a voltage pattern to activate hERG channels and conduct IKhERG currents (rapid delayed outward rectifier potassium current of the hERG channel). After the cells were stabilized for a few minutes, the amplitude and kinetics of IKhERG were recorded at a stimulation frequency of 0.1 Hz, (6 bpm). Thereafter, the test compound was added to the preparation at increasing concentrations. For each concentration, an attempt was made to reach a steady-state effect, usually, this was achieved within 3-10 min at which time the next highest concentration was applied. The amplitude and kinetics of IKhERG are recorded in each concentration of the drug which were compared to the control values (taken as 100%). (references: Redfern W S, Carlsson L, Davis A S, Lynch W G, MacKenzie I, Palethorpe S, Siegl P K, Strang I, Sullivan A T, Wallis R, Camm A J, Hammond T G. 2003; Relationships between preclinical cardiac electrophysiology, clinical QT interval prolongation and torsade de pointes for a broad range of drugs: evidence for a provisional safety margin in drug development. Cardiovasc. Res. 58:32-45, Sanguinetti M C, Tristani-Firouzi M. 2006; hERG potassium channels and cardiac arrhythmia. Nature 440:463-469, Webster R, Leishman D, Walker D. 2002; Towards a drug concentration effect relationship for QT prolongation and torsades de pointes. Curr. Opin. Drug Discov. Devel. 5:116-26).

The next data set concerns the target T2, hTLR9 (Homo sapiens, UniProt Q9NR96).
T2 sequence (Q9NR96 26-1032): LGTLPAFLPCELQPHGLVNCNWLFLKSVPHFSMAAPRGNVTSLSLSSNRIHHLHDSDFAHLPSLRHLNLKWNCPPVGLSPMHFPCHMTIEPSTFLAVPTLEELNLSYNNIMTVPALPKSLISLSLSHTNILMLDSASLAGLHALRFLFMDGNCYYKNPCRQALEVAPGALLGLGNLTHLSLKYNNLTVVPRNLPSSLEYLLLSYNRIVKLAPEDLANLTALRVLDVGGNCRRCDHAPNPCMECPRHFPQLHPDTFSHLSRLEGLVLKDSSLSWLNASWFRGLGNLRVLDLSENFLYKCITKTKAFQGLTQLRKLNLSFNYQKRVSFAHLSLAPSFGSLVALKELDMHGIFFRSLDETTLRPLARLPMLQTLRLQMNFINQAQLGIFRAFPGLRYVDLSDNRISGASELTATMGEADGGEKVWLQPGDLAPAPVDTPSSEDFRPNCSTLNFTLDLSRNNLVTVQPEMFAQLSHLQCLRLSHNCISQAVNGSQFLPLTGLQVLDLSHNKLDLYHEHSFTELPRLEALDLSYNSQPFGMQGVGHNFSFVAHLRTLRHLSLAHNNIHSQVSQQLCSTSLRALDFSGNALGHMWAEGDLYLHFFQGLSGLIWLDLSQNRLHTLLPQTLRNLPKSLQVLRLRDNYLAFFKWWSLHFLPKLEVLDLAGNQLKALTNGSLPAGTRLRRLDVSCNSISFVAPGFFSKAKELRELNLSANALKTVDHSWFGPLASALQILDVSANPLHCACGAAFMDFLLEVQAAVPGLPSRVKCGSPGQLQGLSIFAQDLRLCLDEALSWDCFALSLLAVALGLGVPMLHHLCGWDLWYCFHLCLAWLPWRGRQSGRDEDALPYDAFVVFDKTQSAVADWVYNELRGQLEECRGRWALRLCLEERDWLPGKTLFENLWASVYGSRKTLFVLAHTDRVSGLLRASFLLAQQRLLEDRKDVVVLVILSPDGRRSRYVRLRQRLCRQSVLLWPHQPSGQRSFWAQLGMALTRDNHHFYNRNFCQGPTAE
The arrangement: host or cells: HEK. As to conditions: data disclosed in US20150105370; read-out: HEK/hTLR9 IC50; cited from earlier work.

A further data set has as its target T3, CYP3A4 (Homo sapiens, UniProt P08684).
T3 construct: tissue BD-Gentest 452117; host or cells: human liver microsomes
The data set can be described thus: CYP inhibition assay in human liver microsome, CYP3A4. The data set is classed as in vitro ADME. As to conditions: human, human liver microsomes, probe midazolam 5 μM, substrate midazolam 5 μM, third value of 2C9/2D6/3A4. How it is done: (§1) This is a high throughput screening assay used for assessment of reversible inhibition of CYP2C9, CYP2D6, and CYP3A4 activity of test compounds in human liver microsome (HLM) in early discovery stage.
(§2) 10 mM DMSO stock solutions of test compounds were diluted in DMSO to generate 2 mM intermediate stock solution. 250 nL, of intermediate stock solution were transferred in duplicate into 3 separate 384 well microtitre plates (assay-ready plates). A mixture of HLM and each substrate was made up. 45 μL of HLM substrate mix was then transferred to each well of an assay ready plate and mixed. The negative (solvent) and positive controls (standard inhibitor for each CYP) were included in each assay ready plate. The assay ready plate was warmed to 37° C. in an incubator over 10 minutes. 5 μL pre-warmed NADPH regenerating system was added to each incubation well to start the reaction. Final incubation volume was 50 μL. The assay plate then was placed back in the 37° C. incubator. After incubation (10 minutes for CYP2D6) for 5 minutes, incubates were quenched by addition of 50 μL 100% acetonitrile containing internal standards (400 ng/mL 13C6-4′-OH-Diclofenac, 20 ng/mL D3-Dextrorphan and 20 ng/mL D4-1′OH-Midazolam). The supernatants were collected for RapidFire/MS/MS analysis.
(§3) RapidFire online solid phase extraction/sample injection system (Agilent) coupled with API4000 triple quadrupole mass spectrometer (AB Sciex) were used for sample analysis. The mobile phase composed of acetonitrile and water supplemented with 0.1% formic acid. A C4 solid phase extraction cartridge is used for sample separation. MS detection is achieved in positive ion MRM mode.
(§4) Peak areas for substrate, metabolite and internal standard are determined using the RapidFire integrator software (version 3.6.12009.12296). Peak area ratios (PAR) of metabolite and internal standard (stable-labelled metabolite) are then calculated. The measurement window for each experiment is then defined:
(§5) PAR (0% activity)=average PAR for all incubations containing concentrated inhibitor; Par (100% activity)=average PAR for all incubations containing no inhibitor (DMSO controls); % Activity (test inhibitor)=[PAR (test inhibitor)−PAR (0% activity)]/[PAR (100% activity)−PAR (0% activity)]; % Inhibition (test inhibitor)=100-% Activity (test inhibitor).

In a further data set the target is T4, CYP2C9 (Homo sapiens, UniProt P11712).
T4 construct: tissue BD-Gentest 452117; host or cells: human liver microsomes
The data set can be described thus: CYP inhibition assay in human liver microsome, CYP2C9. The data set is classed as in vitro ADME. As to conditions: human, human liver microsomes, probe diclofenac 5 μM, substrate diclofenac 5 μM, first value of 2C9/2D6/3A4. How it is done: as §1, §2, §3, §4, §5

Where only a bound is given, the exact number is not on record here.

T1 sequence (Q12809 whole entry): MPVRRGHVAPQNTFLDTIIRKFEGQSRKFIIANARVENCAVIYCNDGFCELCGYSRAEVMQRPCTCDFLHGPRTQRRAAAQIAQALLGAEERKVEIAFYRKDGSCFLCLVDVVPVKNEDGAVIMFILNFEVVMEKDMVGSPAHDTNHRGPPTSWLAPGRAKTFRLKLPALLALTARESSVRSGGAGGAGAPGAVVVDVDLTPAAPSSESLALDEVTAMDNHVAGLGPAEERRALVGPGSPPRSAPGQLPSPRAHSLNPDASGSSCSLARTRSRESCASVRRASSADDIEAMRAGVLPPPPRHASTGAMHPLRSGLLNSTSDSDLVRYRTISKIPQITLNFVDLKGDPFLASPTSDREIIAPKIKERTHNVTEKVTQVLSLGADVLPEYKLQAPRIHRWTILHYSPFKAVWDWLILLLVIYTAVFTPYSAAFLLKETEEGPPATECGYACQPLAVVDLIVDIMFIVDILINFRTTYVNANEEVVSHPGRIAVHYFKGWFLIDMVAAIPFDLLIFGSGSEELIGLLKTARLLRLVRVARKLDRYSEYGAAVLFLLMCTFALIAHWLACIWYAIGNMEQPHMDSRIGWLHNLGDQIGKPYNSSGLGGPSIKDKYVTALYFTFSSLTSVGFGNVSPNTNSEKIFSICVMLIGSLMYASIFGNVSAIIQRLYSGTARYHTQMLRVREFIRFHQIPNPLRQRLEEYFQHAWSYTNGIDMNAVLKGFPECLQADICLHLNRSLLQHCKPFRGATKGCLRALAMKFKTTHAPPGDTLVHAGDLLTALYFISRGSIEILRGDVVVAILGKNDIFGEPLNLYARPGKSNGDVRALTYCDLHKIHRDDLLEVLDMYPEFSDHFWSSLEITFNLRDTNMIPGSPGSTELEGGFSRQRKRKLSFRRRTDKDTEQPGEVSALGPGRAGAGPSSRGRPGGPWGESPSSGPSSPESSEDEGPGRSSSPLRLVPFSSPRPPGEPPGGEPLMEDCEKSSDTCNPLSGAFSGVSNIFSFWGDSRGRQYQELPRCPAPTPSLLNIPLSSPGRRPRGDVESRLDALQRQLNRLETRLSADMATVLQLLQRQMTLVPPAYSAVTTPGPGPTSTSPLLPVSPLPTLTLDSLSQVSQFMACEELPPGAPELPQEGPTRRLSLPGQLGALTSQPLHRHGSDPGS
T3 sequence (P08684 whole entry): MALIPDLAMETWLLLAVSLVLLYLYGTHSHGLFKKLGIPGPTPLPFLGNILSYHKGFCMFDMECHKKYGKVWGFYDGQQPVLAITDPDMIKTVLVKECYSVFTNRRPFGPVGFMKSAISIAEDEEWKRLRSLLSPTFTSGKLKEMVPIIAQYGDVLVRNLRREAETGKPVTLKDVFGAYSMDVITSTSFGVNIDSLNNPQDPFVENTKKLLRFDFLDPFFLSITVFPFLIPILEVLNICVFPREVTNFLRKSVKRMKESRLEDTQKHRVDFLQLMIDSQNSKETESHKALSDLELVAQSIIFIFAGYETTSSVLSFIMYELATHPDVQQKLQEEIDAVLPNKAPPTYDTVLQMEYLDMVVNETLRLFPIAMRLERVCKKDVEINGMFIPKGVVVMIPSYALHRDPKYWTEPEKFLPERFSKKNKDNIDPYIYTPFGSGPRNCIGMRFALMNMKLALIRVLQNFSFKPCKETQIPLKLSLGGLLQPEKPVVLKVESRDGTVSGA
T4 sequence (P11712 whole entry): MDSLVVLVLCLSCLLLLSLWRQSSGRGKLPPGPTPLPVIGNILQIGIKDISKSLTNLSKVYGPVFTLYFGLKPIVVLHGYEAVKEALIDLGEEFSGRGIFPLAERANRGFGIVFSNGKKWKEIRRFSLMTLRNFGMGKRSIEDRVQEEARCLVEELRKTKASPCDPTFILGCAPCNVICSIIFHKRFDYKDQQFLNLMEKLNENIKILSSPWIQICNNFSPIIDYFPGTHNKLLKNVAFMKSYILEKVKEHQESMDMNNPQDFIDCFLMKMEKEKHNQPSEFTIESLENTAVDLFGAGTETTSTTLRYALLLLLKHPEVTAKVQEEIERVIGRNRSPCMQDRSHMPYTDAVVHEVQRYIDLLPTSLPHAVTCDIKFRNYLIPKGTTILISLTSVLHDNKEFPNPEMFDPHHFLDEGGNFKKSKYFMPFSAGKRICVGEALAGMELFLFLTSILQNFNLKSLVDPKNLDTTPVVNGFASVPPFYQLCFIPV

On to `C[C@@H]1CN(c2ccc(C#N)c3ncccc23)C[C@H](CN2CCN(c3ccccc3)CC2)O1` [ER-887258, reference compound], for which, at hERG channel, the “safety window (hERG IC20/TLR7/8/9 IC50) compared to the compounds of this invention” value is listed as “much narrower safety window”, the “hERG IC20/TLR7 IC50” value is 8.1 and the “hERG IC20/TLR9 IC50” value turned out to be 0.3. Also, the IC50 on hTLR9 is above 2000 nM.
Consider `C[C@@H]1CN(c2ccc(C#N)c3ncccc23)C[C@H](CN2CCN(c3ccncc3)CC2)O1` [ER-888286, reference compound], for which, on CYP3A4, the inhibition at 5 min, 10 µM is 5.5%. In addition, on hERG channel, the “safety window (hERG IC20/TLR7/8/9 IC50) compared to the compounds of this invention” value was “much narrower safety window”, the “hERG IC20/TLR7 IC50” value amounted to 0.3 and the “hERG IC20/TLR9 IC50” value turned out to be 0.2. At CYP2C9, this compound yielded an inhibition at 5 min, 10 µM of 29.5%. The IC50 at hTLR9 was above 2000 nM.
